{
  "source": "patent US20110027300A1",
  "about": "“Identification of a novel cysteine-rich cell penetrating peptide” (Max-Planck-Gesellschaft zur Forderung der Wissenschaften …, priority 2008, published 2011)",
  "key": {"NIH 3T3 fibroblasts [1]": {"tested_on": "NIH 3T3 fibroblasts", "assay": "Uptake assay: cell-related FITC fluorescence corrected for cell number", "type": "cell-based, mouse", "conditions": "for cellular uptake / internalization efficiency: K(FITC)-labelled peptide", "experimental": "NIH 3T3 mouse fibroblast cells were cultured as a monolayer at 37° C. with 10% CO2 in Dulbecco's Modified Eagle's Medium (DMEM) supplemented with 10% fetal bovine serum, 4 mM L-glutamine, 100 μg/mL streptomycin and 100 U/mL penicillin (all purchased from Biochrom AG, Germany). Cells were passaged by trypsinization with trypsin/EDTA 0.05/0.02% (w/v) in phosphate-buffered saline (PBS; Biochrom AG, Germany) every second to third day.\n(§1) Internalization experiments on cells were performed in 96 well microplates by inoculation of NIH 3T3 fibroblasts (1×10^4 cells/well). After 24 h, cells were incubated with 2.5 μM of different peptide solutions in DMEM for additional 18 h at 37° C. with 10% CO2. Before washing, cells were incubated with Bisbenzimid 33342 (Hoechst 33342), a nuclear stain, in order to estimate the cell number. Cells were washed with Hanks' buffered saline (Biochrom AG, Germany) and extracellular fluorescence was quenched by incubating with cold trypan blue 0.05% (w/v) in phosphate-buffered saline (Biochrom AG, Germany) for 3 min followed by repeated washes with Hanks' buffered saline. Cell-related FITC fluorescence (Ex 485 nm/Em 530 nm) and cell number (Ex 346 nm/Em 460 nm) was evaluated in a multiplate reader. Experiments were run at least three times for each peptide with six replicates. Statistical analysis was performed by Student's t-test or ANOVA with Dunnett's post test. P values <0.05 were considered significant. The results are depicted in FIGS. 1 to 3."}, "[2]": {"tested_on": "different cell types and mouse blastocysts", "conditions": "cited from earlier work"}, "[3]": {"tested_on": "PANC1 human pancreatic carcinoma", "assay": "Internalization in additional cell lines", "type": "cell-based", "experimental": "(§2) C6 rat glioma N18 mouse neuroblastoma (differentiated, undifferentiated) CCL-11 mouse fibrosarcoma Shin3 human ovarian carcinoma PANC1 human pancreatic carcinoma Primary murine bone marrow cells\n(§3) Cells were cultivated using their respective optimized growth medium and passaged as described. Differentiation was induced in N18 cells by stepwise reduction of serum in the growth medium from 10% to 1.25%.\nas §1\n(§4) The same cells were subjected to microscopic studies without fixation using a Zeiss Axiovert 200 M (Germany) microscope with a LD Plan NeoFluor 40× objective. The imaging conditions were kept constant for the observation of different samples. Cellular localization and distribution of the peptide was observed by irradiating with blue light (470/40 nm) and observing at 525/50 nm. The bright punctate and encapsulated appearing FITC fluorescence was categorized as vesicular uptake while diffused fluorescence appeared to be distributed in the entire cell with similar intensity. […] Also phase contrast images with DIC of the same area were made to observe if the cells maintain their normal morphology in the presence of peptides."}, "[4]": {"tested_on": "N18 mouse neuroblastoma (undifferentiated)", "assay": "Internalization in additional cell lines", "type": "cell-based", "experimental": "as §2, §3, §1, §4"}, "[5]": {"tested_on": "CCL-11 mouse fibrosarcoma", "assay": "Internalization in additional cell lines", "type": "cell-based", "experimental": "as §2, §3, §1, §4"}, "C6 rat glioma": {"tested_on": "C6 rat glioma", "assay": "Internalization in additional cell lines", "type": "cell-based", "experimental": "as §2, §3, §1, §4"}, "[6]": {"tested_on": "Shin3 human ovarian carcinoma", "assay": "Internalization in additional cell lines", "type": "cell-based", "experimental": "as §2, §3, §1, §4"}, "[7]": {"assay": "Peptide NMR in water, solution state", "type": "physicochemical", "experimental": "Sample solutions were prepared at pH 4-4.5 and pH 6.5-7 in water. At pH 4.5 standard set of 2D homonuclear experiments (2D-ipCOSY, 2D-TOCSY, two 2D-NOESY spectra at different mixing times (100 and 200 ms)) and heteronuclear experiments (^13C-HSQC and ^15N-HSQC) were performed. The sample yielded well resolved spectra consistent with a monomeric peptide. Using these spectra it was possible to complete a full assignment of all non-exchangeable proton resonances, plus the carbon and nitrogen resonances.\nWhereas at pH 6.5, broadening of lines, probably due to the formation of high molecular weight aggregates, makes it difficult to assign individual resonances. Thus, the presence or absence of disulfide bridges in this sample could not be deduced.\nNMR experiments were carried out at 600 MHz on a Bruker Avance III spectrometer."}, "[8]": {"tested_on": "differentiated N18 neuroblastoma cells", "assay": "Internalization in additional cell lines", "type": "cell-based, mouse", "conditions": "differentiated N18, serum reduced from 10% to 1.25%", "experimental": "as §2, §3\nas §1, with “P values <0.05 were considered significant. The results are depicted in FIGS. 1 to 3.” left out"}, "NIH 3T3 fibroblasts [9]": {"tested_on": "NIH 3T3 fibroblasts", "assay": "Fluorescence microscopy of cellular localization and distribution of the peptide", "type": "cell-based, mouse", "conditions": "for intracellular fluorescence distribution (vesicular / diffused cytosolic): K(FITC)-labelled peptide, 2.5 μM, live cells without fixation", "source_text": "as §4"}, "[10]": {"tested_on": "Primary murine bone marrow cells", "assay": "Internalization in additional cell lines", "type": "cell-based, mouse", "experimental": "as §2\nBone marrow cells were extracted from hind legs of sacrificed mice and were kept in supplemented IMDM medium.\nas §1, with “3. […]” for “3.”"}, "cells": {"tested_on": "cells", "conditions": "cited from earlier work"}},
  "note": "Like-named read-outs stand apart in the source and are kept apart here. Square brackets hold non-standard residues; d marks the D form. Ends that are not written are not given here. K(FITC) = lysine labelled with FITC",
  "data": [
    {"substance": "Ac-tccgtgaacggc-K(FITC)-CRWRWKCCKK-CONH2 (chain 1 Ac-[code t][code c][code c][code g][code t][code g][code a][code a][code c][code g][code g][code c]; chain 2 {K(FITC)}-CRWRWKCCKK-NH2; not fully specified (C-terminus); cysteine pairing not given here; also: chain 1 is a PNA strand joined via Lys(FITC) to peptide chain 2) [PNA-CyLoP-1 fusion]", "values": [
      {"measurement": "uptake compared to peptide 23 (CyLoP-1)", "setting": "NIH 3T3 fibroblasts [1]; 2.5 μM, 18 h, 37° C.", "result": "lowest intracellular fluorescence"}
    ]},
    {"substance": "Crotamine", "values": [
      {"measurement": "intracellular localization", "setting": "[2]; applied before cell division, after the telophase", "result": "mainly localized in the cytoplasm"},
      {"measurement": "intracellular localization", "setting": "[2]", "result": "localize preferably in the nucleus"},
      {"measurement": "non-toxic concentration", "setting": "[2]", "result": "up to 1 μM"},
      {"measurement": "cell penetration", "setting": "[2]; in vitro", "result": "penetrating into different cell types and mouse blastocysts"}
    ]},
    {"substance": "K (FITC)-CRWRWKCCKK ({K(FITC)}-CRWRWKCCKK; cysteine pairing not given here) [peptide 23]", "values": [
      {"measurement": "uptake behaviour and fluorescence distribution", "setting": "[3]", "result": "comparable uptake behaviour with vesicular as well as diffused cytosolic fluorescence distribution"},
      {"measurement": "uptake behaviour and fluorescence distribution", "setting": "[4]", "result": "comparable uptake behaviour with vesicular as well as diffused cytosolic fluorescence distribution"},
      {"measurement": "uptake behaviour and fluorescence distribution", "setting": "[5]", "result": "comparable uptake behaviour with vesicular as well as diffused cytosolic fluorescence distribution"},
      {"measurement": "uptake behaviour and fluorescence distribution", "setting": "C6 rat glioma", "result": "comparable uptake behaviour with vesicular as well as diffused cytosolic fluorescence distribution"},
      {"measurement": "uptake behaviour and fluorescence distribution", "setting": "[6]", "result": "comparable uptake behaviour with vesicular as well as diffused cytosolic fluorescence distribution"},
      {"measurement": "solution state of the peptide", "setting": "[7]; pH 4.5 in water", "result": "unstructured and in a reduced state"},
      {"measurement": "solution state of the peptide", "setting": "[7]; pH 6.5 in water", "result": "aggregation"},
      {"measurement": "uptake", "setting": "[8]", "result": "strongly reduced"},
      {"measurement": "intracellular fluorescence distribution (vesicular / diffused cytosolic)", "setting": "NIH 3T3 fibroblasts [9]", "result": "endosomal as well as cytoplasmic fluorescence distribution"},
      {"measurement": "cytosolic distribution at low concentration", "setting": "NIH 3T3 fibroblasts [9]; concentration as low as 2.5 μM", "result": "retaining the cytosolic distribution"},
      {"measurement": "delivery efficiency compared with penetratin", "setting": "NIH 3T3 fibroblasts [1]; 2.5 μM", "result": "better taken up by cells"},
      {"measurement": "cellular uptake / internalization efficiency", "setting": "NIH 3T3 fibroblasts [1]; 2.5 μM, 18 h, 37° C.", "result": "competently taken up by cells"},
      {"measurement": "uptake and cytosolic diffused fluorescence on addition of Dithiothreitol (DTT)", "setting": "NIH 3T3 fibroblasts [1]; excess DTT in the incubation medium", "result": "reduced the uptake as well as the cytosolic diffused fluorescence"},
      {"measurement": "concentration at which efficient cellular uptake and cytosolic location along with vesicular distribution is shown", "setting": "NIH 3T3 fibroblasts [1]; subtoxic concentrations", "result": "< 2.5", "unit": "µM"},
      {"measurement": "uptake behaviour and fluorescence distribution", "setting": "[10]", "result": "comparable uptake behaviour with vesicular as well as diffused cytosolic fluorescence distribution"}
    ]},
    {"substance": "K (FITC)-KMDCRWRWKCCKK ({K(FITC)}-KMDCRWRWKCCKK; cysteine pairing not given here) [peptide 1, reference compound]", "values": [
      {"measurement": "internalization into cells", "setting": "cells", "result": "able to internalize into cells"},
      {"measurement": "intracellular fluorescence distribution (vesicular / diffused cytosolic)", "setting": "NIH 3T3 fibroblasts [9]", "result": "cytoplasmic diffusion"},
      {"measurement": "cellular uptake / internalization efficiency", "setting": "NIH 3T3 fibroblasts [1]; 2.5 μM, 18 h, 37° C.", "result": "efficient CPP"}
    ]}
  ]
}
